The source of these data is patent US10017527B2, “KLK4 inhibitors” (Universiteit Antwerpen, priority 2014, dated 2018).

Structures are written as SMILES. Some results are limits rather than exact numbers.

Assay type in all cases: biochemical
The target of one assay is AcHE (Homo sapiens, UniProt P22303). As to the kind of experiment: AcHE inhibition.
Assay [1] deals with T1, Neurtophil Elastase(human) (Homo sapiens, UniProt P08246).
T1 construct: purchased Enzo-life sciences
T1 sequence (P08246 30-267): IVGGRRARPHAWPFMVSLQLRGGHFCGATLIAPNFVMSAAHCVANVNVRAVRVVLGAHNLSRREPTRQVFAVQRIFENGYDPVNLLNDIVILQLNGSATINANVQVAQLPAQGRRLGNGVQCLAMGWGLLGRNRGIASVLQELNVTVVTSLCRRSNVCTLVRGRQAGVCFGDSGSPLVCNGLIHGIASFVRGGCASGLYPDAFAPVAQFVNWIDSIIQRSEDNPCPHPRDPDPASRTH
Put plainly: Neutrophil elastase inhibition, chromogenic substrate MeOSuc-Ala-Ala-Pro-Val-pNA. An excerpt:
(§1) The IC50 values For KLK1, KLK2 and KLK8 were obtained in a similar way. For plasmin, tPA, thrombin, Fxa, HNE, Plasma kallikrein Chromogenic substrates were used (absorption: 405 nm). (KLK2, KLK4, KLK8 were supplied by Viktor Magdolen TUMunich (TUM)).

Assay [2] concerns the target T2, KLK4 (Homo sapiens, UniProt Q9Y5K2).
T2 construct: purchased Viktor Magdolen (TUM), supplied by an academic laboratory
Put plainly: KLK4 enzymatic inhibition, fluorogenic substrate Boc-Val-Pro-Arg-AMC. The protocol:
The substrate was obtained form Bachem and the enzyme was provided by Viktor Magdolen (TUM). The reaction was monitored with an excitation wavelength of 355 nm and emission wavelength of 460 nm. The initial rate was determined between 2500000 and 4500000 mRFU/min. The reaction mixture contained 25 μM substrate and approximately 1 mU of enzyme in 145 μL of buffer in a final volume of […]. A 50 mM Tris buffer, pH 8.3, was used. From each inhibitor concentration, 5 μL was added, obtaining a final concentration from 0 to 250 μM in a total volume of 0.2 mL. Activity measurements were routinely performed in duplicate. […] IC50 values were obtained by fitting the data with the four-parameter logistics equation using Grafit 7.
[formula] where s=slope factor, v=rate, I0=inhibitor concentration, and range=the fitted uninhibited value minus the background. The equation assumes they falls with increasing x.
(§2) Inhibitor stock solutions were prepared in DMSO and stored at −20° C. Because the compounds described in this paper completely inactivate KLK4 following pseudo first-order kinetics, the IC50 value is inversely correlated with the second-order rate constant of inactivation. For a simple pseudo first-order inactivation process, the activity after incubation with inhibitor (vi) varies with the inhibitor concentration (i), as described in the following equation: vi=v0×e^−k t, where vo is the activity in absence of inhibitor, k is the second-order rate constant of inactivation, and t is the time. The inactivation rate constant was determined from the time course of inhibition.

Assay [3] addresses T2, KLK4. Put plainly: KLK4 inactivation kinetics from progress curves (kobs vs inhibitor concentration). Particulars: for Irreversible (KLK4): irreversible binding to KLK4, Yes/No. Here is the method:
as §2
The inhibitor was mixed with the substrate (250 μM final concentration), and the buffer solution with the enzyme was added at the time zero. […] The progress curves show the absorbance of aminomethylcoumarine produced as a function of time. Initially, no inhibitor is bound to the enzyme, and the tangent to the progress curve (dA/dt) is proportional to the concentration of the free enzyme. The concentration of free enzyme decreases over time due to the kinetics of inhibitor binding, as described above. Progress curves were recorded in pseudo first-order conditions ([I]0>>[E]0) and with less than 10% conversion of the substrate during the entire time course. In these conditions, dA/dt decreases exponentially with time. The progress curves were fitted with the integrated rate equation to yield a value for kobs, a pseudofirst-order rate constant At=v0[1−e^−k^obs^t]/kobs+A0 where At=absorbance at time t, A0=absorbance at time zero, and v0=uninhibited initial rate.
The apparent second-order rate constant (kapp) was calculated from the slope of the linear part of the plot of kobs versus the inhibitor concentration ([I]0). In case of competition between the inhibitor and the substrate, kapp is smaller than the “real” second order rate constant k discussed above because a certain fraction of the enzyme is present as an enzyme-substrate complex. kapp depends on the substrate concentration used in the experiment, as described by Lambeir et al. (Lambeir, Borloo et al. 1996).

The next assay deals with T3, KLK8 (human) (Homo sapiens, UniProt O60259).
T3 construct: purchased Viktor Magdolen, TUMunich (TUM), supplied by an academic laboratory
T3 sequence (O60259 33-260): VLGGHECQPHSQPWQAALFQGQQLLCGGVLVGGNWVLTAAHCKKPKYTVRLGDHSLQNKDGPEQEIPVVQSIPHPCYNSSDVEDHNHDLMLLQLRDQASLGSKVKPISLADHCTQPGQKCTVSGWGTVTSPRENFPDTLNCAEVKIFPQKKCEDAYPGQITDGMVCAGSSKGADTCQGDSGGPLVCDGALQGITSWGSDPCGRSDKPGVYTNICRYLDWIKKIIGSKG
As to the kind of experiment: KLK8 inhibition, fluorogenic substrate Boc-Val-Pro-Arg-AMC.
Excerpt: as §1

The next assay deals with T4, Matriptase (Homo sapiens, UniProt Q9Y5Y6).
T4 sequence (Q9Y5Y6 1-855): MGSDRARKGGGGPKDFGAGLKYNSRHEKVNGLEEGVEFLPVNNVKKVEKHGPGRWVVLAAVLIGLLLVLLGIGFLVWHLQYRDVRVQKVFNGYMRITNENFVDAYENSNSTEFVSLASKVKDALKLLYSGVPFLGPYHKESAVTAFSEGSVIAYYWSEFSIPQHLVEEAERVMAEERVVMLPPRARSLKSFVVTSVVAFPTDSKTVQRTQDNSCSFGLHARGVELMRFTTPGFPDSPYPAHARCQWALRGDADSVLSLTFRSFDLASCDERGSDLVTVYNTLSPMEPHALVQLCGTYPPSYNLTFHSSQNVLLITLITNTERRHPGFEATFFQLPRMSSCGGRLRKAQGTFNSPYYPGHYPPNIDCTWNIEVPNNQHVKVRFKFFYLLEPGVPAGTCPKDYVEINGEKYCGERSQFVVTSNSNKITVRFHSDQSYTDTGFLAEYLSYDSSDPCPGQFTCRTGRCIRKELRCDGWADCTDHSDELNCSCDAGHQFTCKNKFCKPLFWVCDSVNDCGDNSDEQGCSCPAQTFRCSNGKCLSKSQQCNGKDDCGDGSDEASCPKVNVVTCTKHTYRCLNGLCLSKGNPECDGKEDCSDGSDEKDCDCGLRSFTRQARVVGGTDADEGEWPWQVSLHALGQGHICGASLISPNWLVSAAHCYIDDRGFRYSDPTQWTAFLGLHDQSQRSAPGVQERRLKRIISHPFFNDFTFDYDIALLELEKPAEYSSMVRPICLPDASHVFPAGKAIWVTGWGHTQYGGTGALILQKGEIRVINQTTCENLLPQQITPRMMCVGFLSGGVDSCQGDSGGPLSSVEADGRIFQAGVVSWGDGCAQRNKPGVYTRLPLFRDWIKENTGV
Put plainly: Matriptase inhibition.

For another assay, the target named is T5, uPA (recombinant) (Homo sapiens, UniProt P00749).
T5 construct: purchased Nodia
As to the kind of experiment: uPA inhibition, chromogenic substrate Biophen CS-61(44).

For a further assay, the target named is T6, KLK2 (human) (Homo sapiens, UniProt P20151).
T6 construct: purchased Viktor Magdolen, TUMunich (TUM), supplied by an academic laboratory
T6 sequence (P20151 25-261): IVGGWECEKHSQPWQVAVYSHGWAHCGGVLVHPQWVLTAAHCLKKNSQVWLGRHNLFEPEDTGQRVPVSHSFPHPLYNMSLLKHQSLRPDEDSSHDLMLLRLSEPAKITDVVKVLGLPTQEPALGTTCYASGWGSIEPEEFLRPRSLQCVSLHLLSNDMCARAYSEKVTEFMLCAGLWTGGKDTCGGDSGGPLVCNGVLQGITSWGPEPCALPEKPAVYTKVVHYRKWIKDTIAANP
Put plainly: KLK2 inhibition, fluorogenic substrate H-Pro-Phe-Arg-AMC.
Excerpt: as §1

A further assay deals with T7, KLK1 (human) (Homo sapiens, UniProt P06870).
T7 construct: purchased Prospec
T7 sequence (P06870 25-262): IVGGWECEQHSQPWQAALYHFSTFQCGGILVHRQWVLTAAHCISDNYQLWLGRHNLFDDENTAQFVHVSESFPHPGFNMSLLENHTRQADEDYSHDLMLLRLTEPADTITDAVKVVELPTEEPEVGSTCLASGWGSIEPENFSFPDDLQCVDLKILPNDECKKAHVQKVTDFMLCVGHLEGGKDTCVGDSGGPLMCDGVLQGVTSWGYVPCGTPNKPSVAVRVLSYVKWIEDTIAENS
Put plainly: KLK1 inhibition, fluorogenic substrate H-Pro-Phe-Arg-AMC.
Excerpt: as §1

Another assay deals with T8, Plasmine (human plasma) (Homo sapiens, UniProt P00747).
T8 construct: purchased Sigma-Aldrich; host or cells: human plasma
T8 sequence (P00747 581-810 limits assumed): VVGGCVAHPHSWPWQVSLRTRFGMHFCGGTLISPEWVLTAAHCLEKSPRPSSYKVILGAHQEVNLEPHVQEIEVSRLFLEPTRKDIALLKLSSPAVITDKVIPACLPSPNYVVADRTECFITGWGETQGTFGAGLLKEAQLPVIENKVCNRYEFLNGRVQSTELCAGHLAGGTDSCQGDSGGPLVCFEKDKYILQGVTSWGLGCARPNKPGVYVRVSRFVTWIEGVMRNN
T8 sequence (P00747 98-580 partner limits assumed): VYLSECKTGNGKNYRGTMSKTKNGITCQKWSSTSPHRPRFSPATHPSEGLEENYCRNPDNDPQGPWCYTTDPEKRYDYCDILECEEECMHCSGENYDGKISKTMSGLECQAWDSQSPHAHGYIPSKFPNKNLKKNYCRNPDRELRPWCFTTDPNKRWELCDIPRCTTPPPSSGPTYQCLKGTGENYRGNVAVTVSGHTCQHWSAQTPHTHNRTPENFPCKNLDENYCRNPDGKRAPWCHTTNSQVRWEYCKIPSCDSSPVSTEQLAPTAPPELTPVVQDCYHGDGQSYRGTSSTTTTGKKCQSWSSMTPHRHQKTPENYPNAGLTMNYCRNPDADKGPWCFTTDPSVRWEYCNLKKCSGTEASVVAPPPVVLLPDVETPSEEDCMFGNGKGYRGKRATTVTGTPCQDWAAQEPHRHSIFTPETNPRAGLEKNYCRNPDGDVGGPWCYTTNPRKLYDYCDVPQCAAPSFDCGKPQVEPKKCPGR
Put plainly: Plasmin inhibition, chromogenic substrate Biophen CS-21(66).
Excerpt: as §1

The next assay concerns the target T9, PlasmaKLK (human plasma) (Homo sapiens, UniProt P03952).
T9 construct: purchased Sigma-Aldrich; host or cells: human plasma
As to the kind of experiment: Plasma kallikrein inhibition, chromogenic substrate Biophen CS-31(02).
Excerpt: as §1

For a further assay, the target named is T10, tPA (recombinant) (Homo sapiens, UniProt P00750).
T10 construct: purchased Nodia
T10 sequence (P00750 36-562, species assumed): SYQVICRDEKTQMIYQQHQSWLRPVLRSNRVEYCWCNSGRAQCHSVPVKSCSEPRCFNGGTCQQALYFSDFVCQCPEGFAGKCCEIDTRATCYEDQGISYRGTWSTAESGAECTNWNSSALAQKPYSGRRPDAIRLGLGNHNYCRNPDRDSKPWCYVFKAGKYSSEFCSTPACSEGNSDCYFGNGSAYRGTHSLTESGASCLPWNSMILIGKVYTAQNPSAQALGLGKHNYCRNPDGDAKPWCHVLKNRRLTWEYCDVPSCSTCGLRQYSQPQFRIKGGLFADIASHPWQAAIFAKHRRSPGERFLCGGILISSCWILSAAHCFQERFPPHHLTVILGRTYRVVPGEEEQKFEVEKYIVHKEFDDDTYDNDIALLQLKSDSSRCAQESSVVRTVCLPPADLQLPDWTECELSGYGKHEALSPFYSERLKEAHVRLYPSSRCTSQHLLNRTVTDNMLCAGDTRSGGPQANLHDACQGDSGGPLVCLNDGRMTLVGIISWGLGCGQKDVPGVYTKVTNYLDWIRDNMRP
Put plainly: tPA inhibition, chromogenic substrate Biophen CS-05(88).
Excerpt: as §1

The target of a further assay is T11, Thrombine (human plasma) (Homo sapiens, UniProt P00734).
T11 construct: purchased Sigma-Aldrich; host or cells: human plasma
Put plainly: Thrombin inhibition, chromogenic substrate Biophen CS-21(66).

Another assay has as its target T12, FXa (Homo sapiens, UniProt P00742).
T12 construct: purchased Nodia
As to the kind of experiment: FXa inhibition, chromogenic substrate Biophen CS-11(32).
Excerpt: as §1

T12 sequence (P00742 235-488 limits assumed): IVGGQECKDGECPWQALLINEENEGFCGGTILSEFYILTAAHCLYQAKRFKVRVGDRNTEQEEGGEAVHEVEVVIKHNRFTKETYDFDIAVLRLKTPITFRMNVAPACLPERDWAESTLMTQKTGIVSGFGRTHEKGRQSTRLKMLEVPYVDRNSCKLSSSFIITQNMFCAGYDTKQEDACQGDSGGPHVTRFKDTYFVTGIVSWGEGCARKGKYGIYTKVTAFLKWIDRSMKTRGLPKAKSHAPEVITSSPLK
T12 sequence (P00742 41-179 partner limits assumed): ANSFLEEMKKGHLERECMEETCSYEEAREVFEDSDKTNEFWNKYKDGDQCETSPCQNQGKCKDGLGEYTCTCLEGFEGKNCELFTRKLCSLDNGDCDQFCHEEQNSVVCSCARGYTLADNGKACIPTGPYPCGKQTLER
T2 sequence (Q9Y5K2 31-254): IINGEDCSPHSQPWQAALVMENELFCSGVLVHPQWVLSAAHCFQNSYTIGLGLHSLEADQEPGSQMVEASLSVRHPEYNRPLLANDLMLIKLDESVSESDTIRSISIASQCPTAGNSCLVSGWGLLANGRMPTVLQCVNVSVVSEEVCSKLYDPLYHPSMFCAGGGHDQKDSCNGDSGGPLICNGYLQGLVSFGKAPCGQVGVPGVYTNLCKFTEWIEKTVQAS
Chain of AcHE (P22303 32-614): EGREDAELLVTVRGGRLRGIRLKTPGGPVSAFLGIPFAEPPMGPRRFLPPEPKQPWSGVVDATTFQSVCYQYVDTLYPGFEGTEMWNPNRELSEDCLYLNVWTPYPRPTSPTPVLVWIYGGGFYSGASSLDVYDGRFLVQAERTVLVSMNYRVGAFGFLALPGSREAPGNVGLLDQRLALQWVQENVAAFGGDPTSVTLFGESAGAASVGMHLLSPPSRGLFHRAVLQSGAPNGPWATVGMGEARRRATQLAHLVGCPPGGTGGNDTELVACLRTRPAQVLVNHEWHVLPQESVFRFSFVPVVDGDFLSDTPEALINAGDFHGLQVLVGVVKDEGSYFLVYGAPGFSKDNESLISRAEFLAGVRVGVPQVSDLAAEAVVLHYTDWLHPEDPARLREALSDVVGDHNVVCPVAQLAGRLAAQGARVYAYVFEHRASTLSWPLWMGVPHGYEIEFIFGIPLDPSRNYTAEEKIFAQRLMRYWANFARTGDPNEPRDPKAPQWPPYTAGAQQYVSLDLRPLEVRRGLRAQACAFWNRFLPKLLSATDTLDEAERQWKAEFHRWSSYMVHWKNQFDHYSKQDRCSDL
T9 sequence (P03952 391-638 limits assumed): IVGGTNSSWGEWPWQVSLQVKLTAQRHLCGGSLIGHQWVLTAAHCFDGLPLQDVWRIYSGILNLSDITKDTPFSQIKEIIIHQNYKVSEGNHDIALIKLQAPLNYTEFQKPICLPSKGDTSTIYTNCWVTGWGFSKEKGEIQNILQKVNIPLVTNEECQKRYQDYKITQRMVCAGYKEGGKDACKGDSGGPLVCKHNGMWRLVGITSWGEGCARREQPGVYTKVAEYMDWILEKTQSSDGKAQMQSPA
T9 sequence (P03952 20-390 partner limits assumed): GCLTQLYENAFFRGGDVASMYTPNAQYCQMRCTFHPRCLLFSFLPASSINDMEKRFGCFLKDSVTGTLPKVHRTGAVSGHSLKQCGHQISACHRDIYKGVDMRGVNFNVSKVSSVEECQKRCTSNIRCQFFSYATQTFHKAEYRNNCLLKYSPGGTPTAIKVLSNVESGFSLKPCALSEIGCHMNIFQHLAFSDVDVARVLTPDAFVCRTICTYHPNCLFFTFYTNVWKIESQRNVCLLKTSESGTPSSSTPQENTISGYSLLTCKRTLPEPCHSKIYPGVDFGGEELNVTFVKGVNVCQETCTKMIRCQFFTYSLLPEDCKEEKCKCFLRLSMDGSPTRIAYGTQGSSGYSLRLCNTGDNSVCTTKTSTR

With `N=C(N)Nc1ccc(C(NC(=O)OCc2ccccc2)P(=O)(Oc2ccccc2)Oc2ccccc2)cc1` (stereo not drawn) [Compound 5a, benzyl (diphenoxyphosphoryl)(4-guanidinophenyl)methylcarbamate 2,2,2-trifluoroacetate, reference compound], the IC50 on AcHE is 10 to 250 µM; in [1] it was 10 to 250 µM; at KLK4 [2], less than 0.1 µM; at KLK8 (human), 1 to 2.5 µM; against Matriptase it was 2.5 to 10 µM; at uPA (recombinant), 2.5 to 10 µM. The IC50 against KLK2 (human) is less than 0.1 µM; against KLK1 (human), 0.1 to 1 µM; against Plasmine (human plasma), 2.5 to 10 µM; at PlasmaKLK (human plasma), 2.5 to 10 µM; at tPA (recombinant), greater than 250 µM; against Thrombine (human plasma), greater than 250 µM. Moreover, the IC50 on FXa lay in the range of 2.5 to 10 µM. Further, on KLK4 [3], the “binding mechanism against KLK4” value was “reversible”.
In the case of `C#CCOCCOCCOC(=O)NC(c1ccc(NC(=N)N)cc1)P(=O)(Oc1ccccc1)Oc1ccccc1.O=C(O)C(F)(F)F` (stereo not drawn) [Compound 27, 2-(2-(prop-2-yn-1-yloxy)ethoxy)ethyl ((diphenoxyphosphoryl)(4-guanidinophenyl)methyl)carbamate 2,2,2-trifluoroacetate], the IC50 against AcHE is 10 to 250 µM; in [1], 2.5 to 10 µM; against KLK4 [2] it was less than 0.1 µM; at KLK8 (human), 10 to 250 µM; at Matriptase, 2.5 to 10 µM; at uPA (recombinant), 2.5 to 10 µM. For the same molecule, the IC50 on KLK2 (human) is 1 to 2.5 µM; against KLK1 (human) it was 2.5 to 10 µM; on PlasmaKLK (human plasma), 10 to 250 µM; at tPA (recombinant), greater than 250 µM; against Thrombine (human plasma) it was greater than 250 µM; at FXa it was 10 to 250 µM. On KLK4 [3] (apparent second-order rate constant, substrate 250 μM), the “kapp KLK4” value came to 16000 M⁻¹ s⁻¹. Further, on KLK4 [3], the “Irreversible (KLK4)” value is recorded as “Yes/”.
On to `COCCOC(=O)NC(c1ccc(NC(=N)N)cc1)P(=O)(Oc1ccccc1)Oc1ccccc1` (stereo not drawn) [Compound 29, 2-methoxyethyl ((diphenoxyphosphoryl)(4-guanidinophenyl)methyl)carbamate 2,2,2-trifluoroacetate], for which the IC50 at AcHE lay within 10 to 250 µM; in assay [1] it was 2.5 to 10 µM; at KLK4 [2], 0.1 to 1 µM; against KLK8 (human), 10 to 250 µM; at Matriptase, 2.5 to 10 µM; on uPA (recombinant), 10 to 250 µM. In addition, the IC50 is 0.1 to 1 µM at KLK2 (human); 10 to 250 µM against KLK1 (human); 10 to 250 µM on Plasmine (human plasma); greater than 250 µM against PlasmaKLK (human plasma); greater than 250 µM at tPA (recombinant); greater than 250 µM against Thrombine (human plasma). Moreover, on FXa, the 50% inhibitory concentration (IC50) is greater than 250 µM.
With `CCCCCCOC(=O)NC(c1ccc(NC(=N)N)cc1)P(=O)(Oc1ccccc1)Oc1ccccc1` (stereo not drawn) [Compound 92, Hexyl ((diphenoxyphosphoryl)(4-guanidinophenyl)methyl)carbamate], the IC50 against AcHE is 10 to 250 µM; in [1], 2.5 to 10 µM; against KLK4 [2], less than 0.1 µM; on KLK8 (human), 2.5 to 10 µM; at uPA (recombinant), 2.5 to 10 µM; against KLK2 (human), 0.1 to 1 µM. Further, the IC50 at KLK1 (human) lay within 1 to 2.5 µM; against Plasmine (human plasma) it was 2.5 to 10 µM; on PlasmaKLK (human plasma), 2.5 to 10 µM; on tPA (recombinant), 2.5 to 10 µM; on FXa, 2.5 to 10 µM.
Regarding `N=C(N)Nc1ccc(CC(NC(=O)OCc2ccccc2)P(=O)(Oc2ccccc2)Oc2ccccc2)cc1` (stereo not drawn) [UPA1, reference compound], the half-maximal inhibitory concentration (IC50) is 10 to 250 µM against AcHE; 10 to 250 µM in assay [1]; less than 0.1 µM against KLK4 [2]; less than 0.1 µM on KLK8 (human); 0.1 to 1 µM against Matriptase; less than 0.1 µM on KLK2 (human). Moreover, the concentration for half-maximal inhibition (IC50) against KLK1 (human) is 2.5 to 10 µM; against Plasmine (human plasma), 2.5 to 10 µM; against PlasmaKLK (human plasma), 2.5 to 10 µM; at tPA (recombinant) it was 10 to 250 µM; at Thrombine (human plasma) it was 1 to 2.5 µM; at FXa, 10 to 250 µM. Besides, the “binding mechanism against KLK4” value on KLK4 [3] is “reversible”. Besides, the “Irreversible (KLK4)” value at KLK4 [3] is given as “No”.

What is called IC50 is the midpoint of a concentration-inhibition curve.
